Data taken from the NIST ThermoML archive (doi:10.1016/j.fluid.2008.08.007).

Test: xn = mol fraction of the nth substance listed
Conditions: x1 = 0.75; for surface tension liquid-gas: Ring tensiometer; for mass density: 101 kPa, Liquid, westphal balance

[Cl-].[Cl-].[Zn+2] [zinc chloride] + CCCCn1cc[n+](C)c1.[Cl-]
Conditions	mass density [kg/m3]	surface tension liquid-gas [mN/m]
318.2 K	1779.1	78.3
323.2 K	1773.6	78
328.2 K	1766.9	77.7
333.2 K	1758	77.2
338.2 K	1749.2	76.8
343.2 K	1742.1	76.4
